Assay results published in the supplement of paper PMC10307832.

Columns and labels:
Assay in all cases: relative viability (nuclei count vs DMSO), 5 days (fraction); higher = more cells survive
Mirin + Dasatinib = compound: N=C1NC(=O)/C(=C/c2ccc(O)cc2)S1 [Mirin] + Cc1nc(Nc2ncc(C(=O)Nc3c(C)cccc3Cl)s2)cc(N2CCN(CCO)CC2)n1 [Dasatinib] (partner 0.075 µM)
Procedure, shortened: (§1)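 Lung cancer cell lines were seeded in 1536-well plates and dosed by pin tool the next day, with either a single drug or a fixed anchor-drug dose combined with five library-drug doses (not always all listed) spaced in √10 steps. Five days later, one step fixed the cells and stained their nuclei (final 0.05% Triton X-100, 1% formaldehyde, 1 ug/ml Hoechst), and nuclei were counted on 4× images. Relative viability is the nuclei count in treated wells divided by the count in vehicle wells, and each value is the median of duplicate plates.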

[1] = compound: CCn1c(-c2nonc2N)nc2cnc(Oc3cccc(NC(=O)c4ccc(OCCN5CCOCC5)cc4)c3)cc21 + CC(=O)Nc1cccc(-n2c(=O)n(C3CC3)c(=O)c3c(Nc4ccc(I)cc4F)n(C)c(=O)c(C)c32)c1 [Trametinib] (partner 0.02 µM)
Procedure, shortened: as §1

Mirin + Luminespib = compound: N=C1NC(=O)/C(=C/c2ccc(O)cc2)S1 [Mirin] + CCNC(=O)c1noc(-c2cc(C(C)C)c(O)cc2O)c1-c1ccc(CN2CCOCC2)cc1 [Luminespib] (partner 0.01 µM)
Procedure, shortened: as §1

[2] = compound: CCC1=CN=CN=C1N2CCN(CC2)CC3=NC4=C(N3)C=C(C=C4)C(F)(F)F + CS(=O)(=O)CCNCc1ccc(-c2ccc3ncnc(Nc4ccc(OCc5cccc(F)c5)c(Cl)c4)c3c2)o1 [Lapatinib] (partner 2 µM)
Procedure, shortened: as §1

Cell Line: UMC-11
- relative viability (Mirin + Dasatinib; first compound 0.25 µM): 0.45
- relative viability (Mirin + Dasatinib; first compound 0.7906 µM): 0.424
- relative viability (Mirin + Dasatinib; first compound 2.5 µM): 0.493
- relative viability (Mirin + Dasatinib; first compound 7.906 µM): 0.415
- relative viability (Mirin + Dasatinib; first compound 25 µM): 0.438
- relative viability ([1]; first compound 0.04 µM): 0.609
- relative viability ([1]; first compound 0.1265 µM): 0.607
- relative viability ([1]; first compound 0.4 µM): 0.298
- relative viability ([1]; first compound 1.265 µM): 0.0887
- relative viability ([1]; first compound 4 µM): 0.963
- relative viability (Mirin + Luminespib; first compound 0.25 µM): 1.09
- relative viability (Mirin + Luminespib; first compound 0.7906 µM): 0.983
- relative viability (Mirin + Luminespib; first compound 2.5 µM): 1.01
- relative viability (Mirin + Luminespib; first compound 7.906 µM): 0.826
- relative viability (Mirin + Luminespib; first compound 25 µM): 0.695
- relative viability ([2]; first compound 0.04 µM): 0.808
- relative viability ([2]; first compound 0.1265 µM): 0.974
- relative viability ([2]; first compound 0.4 µM): 0.905
- relative viability ([2]; first compound 1.265 µM): 0.719
- relative viability ([2]; first compound 4 µM): 0.977
